Measurements reported in patent US6831075B2, “Heterocyclic substituted pyrazolones” (Cephalon, Inc., priority 1999, dated 2004).

Tests used:
Assay type in all cases: biochemical
baculoviral GST-MLK1KD = target: T1, baculoviral GST-MLK1KD (Homo sapiens, UniProt P80192); experiment: Mixed Lineage Kinase-1 inhibition assay (Millipore Multiscreen TCA in-plate, 32P); settings: for MLK-1 Kinase % inhibition @ 1 uM: 1 uM compound, 60 μM ATP; for inhibition at 1 µM: read-out: MLK-1 Kinase % inhibition @ 1 uM
T1 construct: 1 μg/ml of baculoviral GST-MLK1KD; GST (N); host or cells: baculovirus expression system
T1 sequence (P80192 144-412 limits assumed): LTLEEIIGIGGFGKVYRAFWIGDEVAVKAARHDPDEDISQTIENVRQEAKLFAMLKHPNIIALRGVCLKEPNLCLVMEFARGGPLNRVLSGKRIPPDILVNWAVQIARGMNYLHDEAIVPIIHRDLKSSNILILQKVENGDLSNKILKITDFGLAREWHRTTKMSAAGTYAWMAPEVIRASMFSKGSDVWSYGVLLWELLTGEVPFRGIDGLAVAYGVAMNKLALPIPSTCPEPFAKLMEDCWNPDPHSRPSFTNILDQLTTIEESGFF
Experimental: Inhibition of Mixed Lineage Kinase-1 Activity
The kinase activity of MLK1 was assessed using the Millipore Multiscreen TCA “in-plate” format as described for protein kinase C (Pitt & Lee, J. Biomol. Screening, 1: 47-51, 1996). Briefly, each 50-μl assay mixture contained 20 mM Hepes, pH 7.0, 1 mM EGTA, 10 mM MgCl2, 1 mM DTT, 25 mM β-glycerophosphate, 60 μM ATP, 0.25 μCi [γ-^32P]ATP, 0.1% BSA, 500 μg/ml myelin basic protein (UBI #13-104), 2% DMSO, 1 μM of test compound, and 1 μg/ml of baculoviral GST-MLK1KD. Samples were incubated for 15 min at 37° C. The reaction was stopped by adding ice cold 50% TCA and the protein were allowed to precipitate for 30 min at 4° C. The plates were then washed with ice cold 25% TCA. Supermix scintillation cocktail was added, and the plates were allowed to equilibrate for 1-2 hours prior to counting using the Wallac MicroBeta 1450 PLUS scintillation counter.

baculoviral GST-MLK2KDLZ = target: T2, baculoviral GST-MLK2KDLZ (Homo sapiens, UniProt Q02779); experiment: Mixed Lineage Kinase-2 inhibition assay (Millipore Multiscreen plate, 32P); settings: 1 uM compound, 100 μM ATP; for inhibition at 1 µM: read-out: MLK-2 Kinase % inhibition @ 1 uM
T2 construct: 3 μg/ml of baculoviral GST-MLK2KDLZ; GST (N); host or cells: baculovirus expression system
T2 sequence (Q02779 98-440 limits assumed): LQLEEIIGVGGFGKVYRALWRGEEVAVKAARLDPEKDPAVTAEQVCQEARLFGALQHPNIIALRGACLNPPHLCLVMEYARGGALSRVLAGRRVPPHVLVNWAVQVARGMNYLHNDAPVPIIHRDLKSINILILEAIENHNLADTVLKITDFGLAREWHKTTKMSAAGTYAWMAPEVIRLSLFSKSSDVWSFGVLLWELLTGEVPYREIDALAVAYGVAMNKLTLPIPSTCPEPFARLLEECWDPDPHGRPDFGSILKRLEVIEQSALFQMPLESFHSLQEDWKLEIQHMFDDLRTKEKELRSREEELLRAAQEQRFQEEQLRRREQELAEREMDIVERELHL
Experimental: Inhibition of Mixed Lineage Kinase-2 Activity
Assays were performed using the Millipore Multiscreen plate format as described for MLK1. Each 50-μl assay mixture contained 20 mM Hepes, pH 7, 1 mM EGTA, 10 mM MgCl2, 1 mM DTT, 25 mM β-glycerophosphate, 100 μM ATP, 0.25 μCi [γ-^32P]ATP, 0.1% BSA, 500 μg/ml myelin basic protein (UBI #13-104), 2% DMSO, various concentrations of test compound, and 3 μg/ml of baculoviral GST-MLK2KDLZ. Samples were incubated for 15 min. at 37° C. The reaction was stopped by adding ice cold 50% TCA and the proteins were allowed to precipitate for 30 min at 4° C. The plates were then washed with ice cold 25% TCA Supermix scintillation cocktail was added, and the plates were allowed to equilibrate for 1-2 hours prior to counting.

[1] = target: T3, baculovirus-expressed human trkA cytoplasmic domain (Homo sapiens, UniProt P04629); experiment: trkA tyrosine kinase inhibition assay (ELISA-based); settings: 1 uM compound; 40 μM ATP
T3 construct: baculovirus-expressed human trkA cytoplasmic domain; host or cells: baculovirus expression system
T3 sequence (P04629 440-796 limits assumed): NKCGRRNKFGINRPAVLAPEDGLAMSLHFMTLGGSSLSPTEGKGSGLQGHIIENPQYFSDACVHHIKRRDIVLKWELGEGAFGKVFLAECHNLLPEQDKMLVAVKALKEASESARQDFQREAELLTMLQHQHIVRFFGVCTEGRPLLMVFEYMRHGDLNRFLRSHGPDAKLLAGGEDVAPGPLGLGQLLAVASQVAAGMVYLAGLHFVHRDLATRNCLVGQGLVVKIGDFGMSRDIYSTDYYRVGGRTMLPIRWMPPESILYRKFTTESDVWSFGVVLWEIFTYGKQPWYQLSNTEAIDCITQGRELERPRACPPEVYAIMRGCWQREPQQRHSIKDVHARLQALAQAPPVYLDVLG
Experimental: Inhibition of trkA Tyrosine Kinase Activity
Selected heterocyclic substituted pyrazolones were tested for their ability to inhibit the kinase activity of baculovirus-expressed human trkA cytoplasmic domain using an ELISA-based assay as previously described (Angeles et al., Anal. Biochem. 236: 49-55, 1996). Briefly, a 96-well microtiter plate was coated with substrate solution (recombinant human phospholipase C-γl/glutathione S-transferase fusion protein (Rotin et al., EMBO J., 11: 559-567, 1992). Inhibition studies were performed in 100 μl assay mixtures containing 50 mM Hepes, pH 7.4, 40 μM ATP, 10 mM MnCl2, 0.1% BSA, 2% DMSO, and various concentrations of inhibitor. The reaction was initiated by addition of trkA kinase and allowed to proceed for 15 minutes at 37° C. An antibody to phosphotyrosine (UBI) was then added, followed by a secondary enzyme-conjugated antibody, alkaline phosphatase-labelled goat anti-mouse IgG (Bio-Rad). The activity of the bound enzyme was measured via an amplified detection system (Gibco-BRL). Inhibition data were analyzed using the sigmoidal dose-response (variable slope) equation in GraphPad Prism.

| SMILES | MLK-1 Kinase % inhibition @ 1 uM (baculoviral GST-MLK1KD) [%] | MLK-2 Kinase % inhibition @ 1 uM (baculoviral GST-MLK2KDLZ) [%] | trkA % inhibition @ 1 uM [1] [%] | inhibition at 1 µM (baculoviral GST-MLK1KD) [%] | inhibition at 1 µM (baculoviral GST-MLK2KDLZ) [%] | inhibition at 1 µM [1] [%] |
| --- | --- | --- | --- | --- | --- | --- |
| O=C1NN=C(c2ccco2)C1=Cc1cn(CCOCc2ccccc2)c2ccccc12 [Compound 71] | 9 | 3 | 15 | – | – | – |
| Cc1cccc2c(C=C3C(=O)NN=C3c3ccn(C)c3)c[nH]c12 [Compound 34] | 17 | 1 | 25 | – | – | – |
| Cc1nc(C)c(C2=NNC(=O)C2=Cc2c[nH]c3ccccc23)s1 [Compound 13] | 10 | −17 | 45 | – | – | – |
| O=C1NN=C(c2ccoc2)C1=Cc1c[nH]c2ccc(Cl)cc12 [Compound 17] | 6 | −8 | 52 | – | – | – |
| O=C1NN=C(c2ccoc2)C1=Cc1c[nH]c2cccc(OCc3ccccc3)c12 [Compound 18] | 14 | −2 | 70 | – | – | – |
| Cn1ccc(C2=NNC(=O)C2=Cc2c[nH]c3cccc(OCc4ccccc4)c23)c1 [Compound 31] | 27 | 0 | 39 | – | – | – |
| O=C1NN=C(c2ccco2)C1=Cc1ncc[nH]1 [Compound 54] | −12 | −48 | 20 | – | – | – |
| Cn1cccc1C1=NNC(=O)C1=Cc1c[nH]c2ccc(F)cc12 [Compound 56] | −22 | −14 | 48 | – | – | – |
| Cc1cc(C)c(C=C2C(=O)NN=C2c2cccn2C)[nH]1 [Compound 55] | −5 | 2 | 47 | – | – | – |
| O=C1NN=C(c2cc3ccccc3o2)C1=Cc1c[nH]c2ccccc12 [Compound 58] | 44 | 4 | 30 | – | – | – |
| O=C1NN=C(c2ccco2)C1=Cc1c[nH]c2ccccc12 [Compound 29, 3-(2-furyl)-4-(indol-3-ylmethylene)-2-pyrazolin-5-one] | – | – | – | 21 | 2 | 43 |
| Cc1cc(C)c(C=C2C(=O)NN=C2c2sc(C)nc2C)[nH]1 [Compound 14] | 8 | −18 | 35 | – | – | – |
| Cc1cc(C)c(C=C2C(=O)NN=C2c2nccs2)[nH]1 [Compound 26, 4-[(3,5-dimethylpyrrol-2-yl)methylene]-3-(1,3-thiazol-2-yl)-2 pyrazolin-5-one] | – | – | – | 10 | -7 | 42 |
| Cc1cccc2c(C=C3C(=O)NN=C3c3ccco3)c[nH]c12 [Compound 47] | 33 | −2 | 37 | – | – | – |
| Cn1cc(C=C2C(=O)NN=C2c2nccs2)c2ccccc21 [Compound 60] | 37 | 9 | 71 | – | – | – |
| O=C1NN=C(c2ccoc2)C1=Cc1c[nH]c2ccc(F)cc12 [Compound 19] | 4 | −5 | 45 | – | – | – |
| Cc1cc(C)c(C=C2C(=O)NN=C2c2cc(C)oc2C)[nH]1 [Compound 36] | −9 | −18 | 40 | – | – | – |
| O=C1NN=C(c2ccco2)C1=Cc1cn(Cc2ccccc2)c2ccccc12 [Compound 69] | 21 | 4 | 35 | – | – | – |
| Cn1ccc(C2=NNC(=O)C2=Cc2c[nH]c3ccc(F)cc23)c1 [Compound 32] | 5 | −14 | 8 | – | – | – |
| O=C1NN=C(c2ccoc2)C1=Cc1cn(Cc2ccccc2)c2ccccc12 [Compound 68] | 17 | 16 | 42 | – | – | – |
| O=C1NN=C(c2nccs2)C1=Cc1cn(CCOCc2ccccc2)c2ccccc12 [Compound 72] | 14 | 3 | 38 | – | – | – |
| Cc1cc(C)c(C=C2C(=O)NN=C2c2cc3ccccc3o2)[nH]1 [Compound 57, 3-benzo[d]furan-2-yl-4-[(3,5-dimethylpyrrol-2-yl)methylene]-2-pyrazolin-5-one] | – | – | – | 44 | 5 | 33 |
| Cc1cc(C)c(C=C2C(=O)NN=C2c2c(C)coc2C)[nH]1 [Compound 27] | 6 | −4 | 49 | – | – | – |
| COC(=O)c1ccc2c(C=C3C(=O)NN=C3c3ccco3)c[nH]c2c1 [Compound 50] | 11 | −1 | 28 | – | – | – |
| COC(=O)c1ccc2[nH]cc(C=C3C(=O)NN=C3c3ccoc3)c2c1 [Compound 16] | 18 | 7 | 29 | – | – | – |
| Cc1cc(C)c(C=C2C(=O)NN=C2c2ccsc2)[nH]1 [Compound 37, 4-[(3,5-dimethylpyrrol-2-yl)methylene]-3-(3-thienyl)-2-pyrazolin-5-one] | – | – | – | 15 | 12 | 28 |
| Cc1cc(C)c(C=C2C(=O)NN=C2c2ccccn2)[nH]1 [Compound 30] | 2 | 1 | 22 | – | – | – |
| Cn1ccc(C2=NNC(=O)C2=Cc2c[nH]c3ccccc23)c1 [Compound 24] | 10 | 4 | 22 | – | – | – |
| Cn1cc(C=C2C(=O)NN=C2c2ccoc2)c2ccccc21 [Compound 20] | 21 | −3 | 60 | – | – | – |
| Cc1cc(C)c(C=C2C(=O)NN=C2c2ccncc2)[nH]1 [Compound 3] | 2 | −1 | 60 | – | – | – |
